Reference: paper PMC6138628, “Enhanced uptake of gH625 by blood brain barrier compared to liver in vivo: characterization of the mechanism by an in vitro model and implications for delivery” (Scientific Reports, 2018)
Where two headings read alike, the source gives them in different places. Residues, ends and D or L forms follow the SMILES beside them.

Columns and labels:
[1] = outer NBD reduced with sodium dithionite
Description: A modification of the lipid mixing experiment allowed to measure peptide-induced mixing of the inner monolayer. A concentration of 0.6% mol for each of the fluorescent probes within the liposome was used. In order to completely reduce the NBD located at the outer surface of the membrane, LUVs were treated with sodium dithionite 100 mM (from a stock solution of 1 M dithionite in 1 M TRIS, pH 10.0) for approximately 1 h on ice in the dark. Excess sodium dithionite was removed by size exclusion chromatography through a Sephadex G-75 50 DNA Grade filtration column (GE Healthcare) eluted with a buffer containing 10 mM TRIS, 100 mM NaCl, and 1 mM EDTA, pH 7.4.
In the inner monolayer assay, the fluorescence from the vesicle membranes’ outer monolayer is eliminated by the addition of an aqueous reducing agent; while in the lipid mixing experiment we measured both hemi-fusion and complete fusion, in this experiment we determined only the extent of lipid mixing between the inner monolayers.

[2] = 0.1 mM lipid, 37 °C, 100% = Triton X-100, repeated at least three times
Description: Large unilamellar vesicles (LUVs) and small unilamellar vesicles (SUVs) consisting of PI/DOPE/DPPC/PS/Chol/SM (4/23/30/8/20/15 ratio in moles)[33],[34], DSPC/POPE/PI/PS/lysoPC/SM/DOPG (37/21/7/9/3/18/5 ratio in moles)[35], and when required containing Rho-PE and NBD-PE, were formulated in 5 mM HEPES, 100 mM NaCl, pH 7.4. LUVs were prepared using the extrusion method as previously reported; lipids were first dissolved in chloroform, then dried under a nitrogen gas stream and lyophilized overnight. For fluorescence experiments, buffer was added to dry lipid films and vortexed for 1 h; then the lipid suspension was freeze-thawed 6 times and extruded 20 times through polycarbonate membranes with 0.1 μm diameter pores to obtain LUVs. For circular dichroism measurements, peptide samples in SUVs were prepared using the following protocol. Lipids were dissolved in chloroform and added to an equal volume of peptide solution dissolved in TFE containing appropriate peptide concentration. The samples were vortexed and lyophilized overnight. The dry samples were rehydrated with phosphate buffer (5 mM) for 1 h and sonicated for 30 min.
Membrane lipid mixing was followed by the resonance energy transfer assay (FRET)[39].

[3] = previous work; cited from earlier work
Description: In general a high accumulation in the target tissue results in an improved therapeutic effect, while a large amount of drug distributed to non-target organs may cause unwanted toxicity and/or side effects. It is thus fundamental to reduce liver metabolism and renal clearance to produce prolonged blood circulation with an i ...

brain / BBB = experiment: In vivo brain uptake, fluorescence microscopy of rat brain; set-up: species or system male Wistar rats; settings: i.v., lower doses injected
Description: In vivo studies were performed in male Wistar rats housed under a 12 hours light-dark cycle with free access to food and water. The animals were allocated in five groups, each consisting of three rats. Three animal groups received a single i.v. administration of NBD-gH625 at a concentration of 10 µg, 20 µg, and 40 µg/100 g bw, respectively. Control group received vehicle while another group received gH-625 (40 µg/100 g bw). Both NBD-gH625 and gH625 were dissolved in phosphate-buffered saline. After 3.5 hours from the i.v. administration, the animals were anesthetized with Zoletil® (40 mg/100 g) and euthanized by decapitation. This study was carried out in strict accordance with recommendations in the European Guide for the Care and Use of Laboratory Animals. Every effort was made to minimize animal pain and suffering. All animal protocols were approved by the Committee on the Ethics of Animal Experiments of the University of Napoli Federico II (Italy) and the Italian Minister of Health. (Protocol number 2012/000180).
The ex-vivo fluorescence microscopy analysis was performed to evaluate the distribution of NBD-gH625 on both sides of the BBB. In order to evaluate if there is a linear relationship between slides fluorescence integrated density and the amount of the peptide, a calibration curve was obtained. In particular, increasing amounts of NBD-gH625 (0–30 µM) were spotted on microscope slides and images at 515 nm were acquired (See the Results section) and analysed as described below. Brains were removed from animals, sectioned sagittally in thick slices, washed in PBS, mounted on coverslips, stained with DAPI (4′–6 Diamidino-2-Phenylindole, Dilactate) (Invitrogen, Carlsbad, CA, USA) and analysed under Axioskop fluorescence microscope (Zeiss). Images, at least 10 field of view (800 × 700 μm each) for each experimental class, were acquired using an AxioCam MRc5 (Zeiss) with DAPI filter (λex 350 nm; λem 461 nm) and a fluorescein isothiocyanate filter (λex 488 nm; λem 515 nm).
To evaluate the distribution of NBD-gH625 on both sides of the BBB, we estimated the fluorescence inside the blood vessels (without discriminating between the amount present in the blood and that present in the endothelial cells) and outside the blood vessels in 10 images for each experimental class. In detail, to assess the NBD-gH625 that reached without crossing the BBB, we selected blood vessels as the region of interest (ROI) (inbound) and evaluated the fluorescence intensity; then, on the non-zero thresholded images, an inversion of selected ROI was carried out to obtain the complementary ROI to calculate the amounts of NBD-gH625 which crossed the BBB (outbound).
The morphology of blood vessels was easily identified and outlined; the images were calibrated by ImageJ Rodbard function; integrated density values were calculated within the outlines exclusively, to be considered as inside fluorescence. Then, the thresholded and outlined images, to exclude both blood vessels and background values, were used to calculate the integrated density as outside fluorescence.
To evaluate the effect of concentration on the systemic delivery of NBD-gH625, a fluorescence microscopy analysis was performed as previously reported.
Briefly, livers and brains were isolated and fixed for 24 hours in Bouin’s fixative (71% picric acid, 5% acetic acid, 24% formaldehyde) and embedded in paraffin wax (Carlo Erba, Milan, Italy). Tissue sections (10 μm of thickness) were incubated in 0.1% Sudan Black B dissolved in 70% ethanol for 20 minutes to reduce the tissues autofluorescence. The excess of Sudan Black B was removed by washing with Tris-buffered saline containing 0.02% Tween 20[30],[31]. Sections were stained with DAPI to counterstain nuclei, then mounted with a coverslip in glycerol/phosphate-buffered saline (1:1) and acquired using an AxioCam MRc5 with DAPI filter (λex 350 nm; λem 461 nm) and a fluorescein isothiocyanate filter (λex 488 nm; λem 515 nm). […]

SMILES: CC[C@H](C)[C@H](NC(=O)[C@H](CC(C)C)NC(=O)[C@H](C)NC(=O)[C@H](CC(N)=O)NC(=O)[C@H](Cc1ccc(O)cc1)NC(=O)[C@H](Cc1c[nH]cn1)NC(=O)[C@H](C)NC(=O)[C@H](Cc1c[nH]c2ccccc12)NC(=O)[C@H](CCCNC(=N)N)NC(=O)[C@@H](NC(=O)[C@H](CC(C)C)NC(=O)[C@@H](NC(=O)[C@H](CO)NC(=O)[C@H](C)NC(=O)[C@H](CC(C)C)NC(=O)CNC(=O)[C@@H](N)Cc1c[nH]cn1)[C@@H](C)O)[C@@H](C)O)C(=O)N[C@@H](CCCNC(=N)N)C(=O)N[C@@H](C)C(=O)N[C@@H](Cc1ccccc1)C(N)=O [gH625] (H-HGLASTLTRWAHYNALIRAF-NH2)
- Inner monolayer fusion ([1]; at a P/L ratio corresponding to 100% of fusion, BBB mimicking LUVs): approximately 20%
- Inner monolayer fusion ([1]; at a peptide/lipid ratio with 100% of lipid mixing, liver mimicking LUVs): 100%
- Maximum peptide/lipid ratio (P/L), complete fusion of vesicles ([2]; LUVs DSPC/POPE/PI/PS/lysoPC/SM/DOPG (37/21/7/9/3/18/5)): 0.7
- Maximum peptide/lipid ratio (P/L), complete fusion of vesicles ([2]; LUVs PI/DOPE/DPPC/PS/Chol/SM (4/23/30/8/20/15)): 0.05
- Alterations of cell viability or maximal mitochondrial oxidative capacity linked to uptake [3]: not linked to alterations of cell viability or maximal mitochondrial oxidative capacity
- Percentage of delivered peptide, brain compared to liver (brain / BBB): higher percentages of delivered peptide compared to the liver
